Laboratory results: US20260174750A1 (Merck Sharp & Dohme LLC, priority 2022, published 2026)

target: T1, human DGAT2 (Homo sapiens, UniProt Q96PD7); assay: biochemical
T1 sequence (Q96PD7 1-388): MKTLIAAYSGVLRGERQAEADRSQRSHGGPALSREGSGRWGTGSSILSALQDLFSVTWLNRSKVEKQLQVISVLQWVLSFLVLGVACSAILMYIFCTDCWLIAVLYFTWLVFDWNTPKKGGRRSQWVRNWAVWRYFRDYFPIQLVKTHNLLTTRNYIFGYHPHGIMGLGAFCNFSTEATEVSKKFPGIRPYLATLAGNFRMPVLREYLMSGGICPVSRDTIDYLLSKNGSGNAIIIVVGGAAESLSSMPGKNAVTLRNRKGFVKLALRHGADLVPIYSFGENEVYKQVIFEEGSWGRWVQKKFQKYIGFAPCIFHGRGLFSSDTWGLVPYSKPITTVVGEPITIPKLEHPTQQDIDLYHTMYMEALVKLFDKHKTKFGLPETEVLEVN
Experimental: Cell pellets were suspended in buffer containing 10 mM Tris-HCl pH 7.5, 1 mM EDTA, 250 mM sucrose and Complete Protease Inhibitor Cocktail (Sigma Aldrich), and sonicated on ice. Cell debris were removed by centrifugation at 2000×g for 15 minutes. Membrane fractions were isolated by ultracentrifugation (100,000×g), resuspended in the same buffer, and frozen (−80° C.) for later use. The protein concentration was determined with the Pierce™ BCA Protein Assay Kit (Thermo Fisher Scientific).
LC/MS/MS analyses were performed using Thermal Fisher's LX4-TSQ Vantage system. This system consists of an Agilent binary high-performance liquid chromatography (HPLC) pump and a TSQ Vantage triple quadrupole MS/MS instrument. For each sample, 2 μL samples from the top organic layer of in-plate liquid-liquid extraction were injected onto a Thermo Betabasic C4 column (2.1 mm×20 mm, 5 μm particle size). The samples were then eluted using the following conditions; mobile phase: Isopropanol:acetonitrile/10 mM ammonium formate=50/35/15 (v/v/v), flow rate: 0.8 mL/min, temperature: 25° C. Data was acquired in positive mode using a heated electrospray ionization (HESI) interface. […] The peak area was integrated by Xcalibur Quan software. The ratio between the ^13C18 triolein generated in the reaction and spiked in internal standard ^13C21-triolein was used to generate percentage inhibition and IC50 values. […] DGAT2 activity was determined by measuring the amount of enzymatic product ^13C18-triolein (^13C-1,2,3-Tri(cis-9-octadecenoyl)glycerol) using the membrane prep mentioned above. The assay was carried out in ABgene 384-well assay plates in a final volume of 25 μL at rt.

Q: For `CCOc1cccnc1Oc1ccc2nc(C(=O)N[C@@H]3CCOC3)nn2c1` [Example 5, 6-[(3-ethoxy-2-pyridyl)oxy]-N-[(3R)-tetrahydrofuran-3-yl]-[1,2,4]triazolo[1,5-a]pyridine-2-carboxamide], which IC50 is on record?
A: 2440 nM

Q: How did the IC50 turn out when `Cc1c(Oc2ncc(Cl)cc2OCC2(F)CC2)ccc2nc(C(=O)NC3(C)CCS(=O)(=O)CC3)nn12` [Example 15, 6-[[5-chloro-3-[(1-fluorocyclopropyl)methoxy]-2-pyridyl]oxy]-5-methyl-N-(4-methyl-1,1-dioxo-thian-4-yl)-[1,2,4]triazolo[1,5-a]pyridine-2-carboxamide] was run?
A: 11 nM

Q: How did the IC50 turn out when `O=C(N[C@H]1CCCC(F)(F)[C@@H]1O)c1nc2ccc(Oc3ncc(Cl)cc3OCC(F)(F)F)cn2n1` [Example 11] was run?
A: 60 nM

Q: Which IC50 does the source give for `Cc1c(OCc2ncc(Cl)cc2OCC(F)F)ccc2nc(C(=O)NC3(C)CCS(=O)(=O)CC3)nn12` [Example 36, 6-((5-chloro-3-(2,2-difluoroethoxy)pyridin-2-yl)methoxy)-5-methyl-N-(4-methyl-1,1-dioxidotetrahydro-2H-thiopyran-4-yl)-[1,2,4]triazolo[1,5-a]pyridine-2-carboxamide] here?
A: 336 nM

Q: How did the IC50 turn out when `Cc1c(Oc2ncc(Cl)cc2OCC(F)(F)F)ccc2nc(C(=O)N[C@H]3CCCC(F)(F)[C@@H]3O)nn12` [Example 21, 6-[[5-chloro-3-(2,2,2-trifluoroethoxy)-2-pyridyl]oxy]-N-[(1S,2R)-3,3-difluoro-2-hydroxy-cyclohexyl]-5-methyl-[1,2,4]triazolo[1,5-a]pyridine-2-carboxamide] was run?
A: 581 nM

Q: For `CC1(NC(=O)c2nc3ccc(Oc4ncccc4OCC(F)(F)F)cn3n2)CCS(=O)(=O)CC1` [Example 7, N-(4-methyl-1,1-dioxo-thian-4-yl)-6-[[3-(2,2,2-trifluoroethoxy)-2-pyridyl]oxy]-[1,2,4]triazolo[1,5-a]pyridine-2-carboxamide], which IC50 is on record?
A: 126 nM

Q: `CCOc1cccnc1Oc1ccc2nc(C(=O)N[C@H]3CC[C@@](OC)(C(F)(F)F)CC3)nn2c1` [Example 6, 6-[(3-ethoxy-2-pyridyl)oxy]-N-[4-methoxy-4-(trifluoromethyl)cyclohexyl]-[1,2,4]triazolo[1,5-a]pyridine-2-carboxamide] was tested. Which IC50 did it give?
A: 149 nM

Q: With `Cc1c(Oc2ncc(F)cc2OCC(C)(F)F)cc(F)c2nc(C(=O)NC3(C)CCS(=O)(=O)CC3)nn12` [Example 32, 6-[[3-(2,2-difluoropropoxy)-5-fluoro-2-pyridyl]oxy]-8-fluoro-5-methyl-N-(4-methyl-1,1-dioxo-thian-4-yl)-[1,2,4]triazolo[1,5-a]pyridine-2-carboxamide] as the compound, how does the IC50 read?
A: 61 nM

Q: How did the IC50 turn out when `CCOc1cccnc1Oc1ccc2nc(C(=O)NC3(C)CS(=O)(=O)C3)nn2c1` [Example 3, 6-[(3-ethoxy-2-pyridyl)oxy]-N-(3-methyl-1,1-dioxo-thietan-3-yl)-[1,2,4]triazolo[1,5-a]pyridine-2-carboxamide] was run?
A: 103 nM

Q: For `Cc1c(Oc2ncc(F)cc2OCC2(F)CC2)ccc2nc(C(=O)NC3(C)CCS(=O)(=O)CC3)nn12` [Example 16, 6-[[5-fluoro-3-[(1-fluorocyclopropyl)methoxy]-2-pyridyl]oxy]-5-methyl-N-(4-methyl-1,1-dioxo-thian-4-yl)-[1,2,4]triazolo[1,5-a]pyridine-2-carboxamide], which IC50 is on record?
A: 25 nM

Q: With `Cc1c(Oc2ncc(F)cc2OCC(C)(F)F)ccc2nc(C(=O)NC3(C)CCS(=O)(=O)CC3)nn12` [Example 19, 6-[[3-(2,2-difluoropropoxy)-5-fluoro-2-pyridyl]oxy]-5-methyl-N-(4-methyl-1,1-dioxo-thian-4-yl)-[1,2,4]triazolo[1,5-a]pyridine-2-carboxamide] as the compound, how does the IC50 read?
A: 210 nM

Q: For `Cc1c(Oc2nccnc2OCC(F)F)cc(F)c2nc(C(=O)NC3(C)CCS(=O)(=O)CC3)nn12` [Example 34, 6-[3-(2,2-difluoroethoxy)pyrazin-2-yl]oxy-8-fluoro-5-methyl-N-(4-methyl-1,1-dioxo-thian-4-yl)-[1,2,4]triazolo[1,5-a]pyridine-2-carboxamide], which IC50 is on record?
A: 31 nM

Q: For `Cc1cc2nc(C(=O)N[C@H]3CCCC(F)(F)[C@@H]3O)nn2cc1Oc1ncc(Cl)cc1OCC(F)(F)F` [Example 23, 6-[[5-chloro-3-(2,2,2-trifluoroethoxy)-2-pyridyl]oxy]-N-[(1S,2R)-3,3-difluoro-2-hydroxy-cyclohexyl]-7-methyl-[1,2,4]triazolo[1,5-a]pyridine-2-carboxamide], which IC50 is on record?
A: 91 nM

Q: How did the IC50 turn out when `Cc1cc2nc(C(=O)NC3(C)CCS(=O)(=O)CC3)nn2c(C)c1Oc1ncc(Cl)cc1OCC(F)(F)F` [Example 24, 6-((5-Chloro-3-(2,2,2-trifluoroethoxy)pyridin-2-yl)oxy)-5,7-dimethyl-N-(4-methyl-1,1-dioxidotetrahydro-2H-thiopyran-4-yl)-[1,2,4]triazolo[1,5-a]pyridine-2-carboxamide] was run?
A: 181 nM

Q: For `Cc1c(Oc2ncc(F)cc2OCC(F)(F)F)cc(F)c2nc(C(=O)NC3(C)CCS(=O)(=O)CC3)nn12` [Example 30, 8-fluoro-6-[[5-fluoro-3-(2,2,2-trifluoroethoxy)-2-pyridyl]oxy]-5-methyl-N-(4-methyl-1,1-dioxo-thian-4-yl)-[1,2,4]triazolo[1,5-a]pyridine-2-carboxamide], which IC50 is on record?
A: 19 nM

Q: With `Cc1c(Oc2ncc(Cl)cc2OCC(C)(F)F)cc(F)c2nc(C(=O)NC3(C)CCS(=O)(=O)CC3)nn12` [Example 31, 6-[[5-chloro-3-(2,2-difluoropropoxy)-2-pyridyl]oxy]-8-fluoro-5-methyl-N-(4-methyl-1,1-dioxo-thian-4-yl)-[1,2,4]triazolo[1,5-a]pyridine-2-carboxamide] as the compound, how does the IC50 read?
A: 30 nM

Q: For `Cc1c(Oc2ncc(Cl)cc2OCC(F)(F)F)cc(F)c2nc(C(=O)NC3(C)CCS(=O)(=O)CC3)nn12` [Example 28, 6-[[5-Chloro-3-(2,2,2-trifluoroethoxy)-2-pyridyl]oxy]-8-fluoro-5-methyl-N-(4-methyl-1,1-dioxo-thian-4-yl)-[1,2,4]triazolo[1,5-a]pyridine-2-carboxamide], which IC50 is on record?
A: 12 nM

Q: Which IC50 does the source give for `Cc1c(OCc2ncc(F)cc2OCC(F)(F)F)ccc2nc(C(=O)NC3(C)CCS(=O)(=O)CC3)nn12` [Example 35, 6-((5-Fluoro-3-(2,2,2-trifluoroethoxy)pyridin-2-yl)methoxy)-5-methyl-N-(4-methyl-1,1-dioxidotetrahydro-2H-thiopyran-4-yl)-[1,2,4]triazolo[1,5-a]pyridine-2-carboxamide] here?
A: 1680 nM

Q: Which IC50 does the source give for `CC1(NC(=O)c2nc3c(F)cc(Oc4ncc(Cl)cc4OCC(F)(F)F)cn3n2)CCS(=O)(=O)CC1` [Example 26, 6-((5-Chloro-3-(2,2,2-trifluoroethoxy)pyridin-2-yl)oxy)-8-fluoro-N-(4-methyl-1,1-dioxidotetrahydro-2H-thiopyran-4-yl)-[1,2,4]triazolo[1,5-a]pyridine-2-carboxamide] here?
A: 9.5 nM

Q: `Cc1cc2nc(C(=O)NC3(C)CCS(=O)(=O)CC3)nn2c(C)c1Oc1nccnc1OCC(F)(F)F` [Example 25, 5,7-dimethyl-N-(4-methyl-1,1-dioxo-thian-4-yl)-6-[3-(2,2,2-trifluoroethoxy)pyrazin-2-yl]oxy-[1,2,4]triazolo[1,5-a]pyridine-2-carboxamide] was tested. Which IC50 did it give?
A: 91 nM

Q: With `CCOc1cccnc1Oc1ccc2nc(C(=O)NC3(C)CCS(=O)(=O)CC3)nn2c1` [Example 2, 6-[(3-ethoxy-2-pyridyl)oxy]-N-(4-methyl-1,1-dioxo-thian-4-yl)-[1,2,4]triazolo[1,5-a]pyridine-2-carboxamide] as the compound, how does the IC50 read?
A: 17 nM

Q: Which IC50 does the source give for `CCOc1cccnc1Oc1ccc2nc(C(=O)N[C@H]3CCOC3)nn2c1` [Example 4, 6-[(3-ethoxy-2-pyridyl)oxy]-N-[(3S)-tetrahydrofuran-3-yl]-[1,2,4]triazolo[1,5-a]pyridine-2-carboxamide] here?
A: 384 nM

Q: For `Cc1c(Oc2ncc(Cl)cc2OCC(F)(F)F)cc(F)c2nc(C(=O)NC3(C)CS(=O)(=O)C3)nn12` [Example 29, 6-[[5-chloro-3-(2,2,2-trifluoroethoxy)-2-pyridyl]oxy]-8-fluoro-5-methyl-N-(3-methyl-1,1-dioxo-thietan-3-yl)-[1,2,4]triazolo[1,5-a]pyridine-2-carboxamide], which IC50 is on record?
A: 383 nM

Q: How did the IC50 turn out when `Cc1c(Oc2ncc(Cl)cc2OCC(C)(F)F)ccc2nc(C(=O)NC3(C)CCS(=O)(=O)CC3)nn12` [Example 18] was run?
A: 50 nM

Q: How did the IC50 turn out when `CC1(NC(=O)c2nc3ccc(Oc4ncccc4OCC(F)(F)F)cn3n2)CC(F)(F)C1` [Example 9] was run?
A: 8250 nM

Q: For `CC1(NC(=O)c2nc3ccc(Oc4ncccc4OCC(F)(F)F)cn3n2)CCC(F)(F)CC1` [Example 8, N-(4,4-difluoro-1-methyl-cyclohexyl)-6-[[3-(2,2,2-trifluoroethoxy)-2-pyridyl]oxy]-[1,2,4]triazolo[1,5-a]pyridine-2-carboxamide], which IC50 is on record?
A: 177 nM

Q: Which IC50 does the source give for `CC1(NC(=O)c2nc3ccc(Oc4ncc(Cl)cc4OCC(F)(F)F)cn3n2)CS(=O)(=O)C1` [Example 10, 6-[[5-chloro-3-(2,2,2-trifluoroethoxy)-2-pyridyl]oxy]-N-(3-methyl-1,1-dioxo-thietan-3-yl)-[1,2,4]triazolo[1,5-a]pyridine-2-carboxamide] here?
A: 151 nM
